Reference: paper PMC10009755, “Discovery and Characterization of BAY-805, a Potent and Selective Inhibitor of Ubiquitin-Specific Protease USP21” (Journal of Medicinal Chemistry, 2023)
pIC50: −log10 of the molar value. Like-named read-outs stand apart in the source and are kept apart here.

How the values were obtained:
USP21 [1] = target: T1, USP21 (Homo sapiens, UniProt Q9UK80); experiment: Thermal shift assay (TSA); assay type: binding; parameters: purchased Ubiquigent (DUBprofiler service); details: 100 μM compound
T1 sequence (Q9UK80 1-565): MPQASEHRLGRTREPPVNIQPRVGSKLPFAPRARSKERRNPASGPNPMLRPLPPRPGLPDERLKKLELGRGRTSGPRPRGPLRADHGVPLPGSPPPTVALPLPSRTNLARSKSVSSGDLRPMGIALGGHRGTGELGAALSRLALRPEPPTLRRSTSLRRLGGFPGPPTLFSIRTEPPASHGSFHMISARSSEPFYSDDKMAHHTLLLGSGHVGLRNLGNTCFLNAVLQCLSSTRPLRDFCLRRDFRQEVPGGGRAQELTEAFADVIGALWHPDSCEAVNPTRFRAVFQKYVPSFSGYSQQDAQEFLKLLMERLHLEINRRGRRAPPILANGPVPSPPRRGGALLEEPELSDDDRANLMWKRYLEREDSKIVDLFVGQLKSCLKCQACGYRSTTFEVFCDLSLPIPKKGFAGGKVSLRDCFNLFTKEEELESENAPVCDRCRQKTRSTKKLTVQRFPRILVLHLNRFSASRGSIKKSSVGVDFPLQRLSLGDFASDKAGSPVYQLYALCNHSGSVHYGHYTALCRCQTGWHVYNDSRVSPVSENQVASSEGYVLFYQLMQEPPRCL
Method: Experiments were carried out with the QuantStudio7 Flex Real-Time PCR system (Thermo Fisher Scientific) in a 384-well plate format with 5 μL of reaction volume. Melting curves were obtained at an USP21 protein concentration of 3.8 μM and 5xSYPRO Orange (Invitrogen) using a buffer containing 20 mM Tris, pH 7.5; 150 mM NaCl; 10% glycerol; and 1.0 mM TCEP. […] For binding experiments, compounds were added from 10 mM stock solution to a final concentration of 100 μM. As a control, 1% DMSO was used. Scans were measured from 25 to 95 °C at a scanning rate of 4 °C/min. All TSA data were analyzed using a Genedata Assay Analyzer.

log D measurement (HPLC) = assay type: physicochemical; details: reverse-phase HPLC, pH 7.5, pH 7.5, HPLC method; read-out: logD7.5
Method: log D values at pH 7.5 were recorded using an indirect method for determining hydrophobicity constants by reverse-phase HPLC. A series of compounds with well-known log D values were used for calibration. Test compounds were injected into the same HPLC system. The lipophilicity of compounds was then assessed by comparison to the calibration curve.

USP21 [2] = target: T1, USP21
Method: To this end, we developed a USP21 activity assay that is based on the deubiquitination of a STING-derived peptide (a USP21-specific substrate[17],[18]) by purified recombinant human full-length USP21 using time-resolved fluorescence resonance energy transfer (TR-FRET) technology (referred to as a homogeneous time-resolved fluorescence (HTRF)-assay, for details see the Supporting Information).[39]
All substrate and enzyme solutions were diluted in an assay buffer. […] Incubation time was 15–20 min at room temperature. […] The stop solution (DUB inhibitor PR619, Abcam) was prepared in 25 mM HEPES, pH 7.5 (Alfa Aesar) containing 0.01% BSA and then left for 10 min at room temperature before filtering with a 0.2 μM PES Membrane (Thermo Fisher). The reaction was stopped with the addition of 2 μL of 200 μM PR619. […] The plates were measured on the ViewLux in screening or PHERAstar FSX in compound profiling. […] The number of flashes per well was set to 3. All of the experimental data were plotted using Genedata analysis. The Z′-factor and S/B of the assay were >0.7 and ∼2, respectively.

USP2 = target: T2, USP2 (Homo sapiens, UniProt O75604); experiment: hUSP2 Ub-rhodamine 110 assay; assay type: biochemical; details: arithmetic means of multiple measurements; read-out: IC50 hUSP2 Ub-Rhod
T2 construct: His tag
T2 sequence (O75604 259-605): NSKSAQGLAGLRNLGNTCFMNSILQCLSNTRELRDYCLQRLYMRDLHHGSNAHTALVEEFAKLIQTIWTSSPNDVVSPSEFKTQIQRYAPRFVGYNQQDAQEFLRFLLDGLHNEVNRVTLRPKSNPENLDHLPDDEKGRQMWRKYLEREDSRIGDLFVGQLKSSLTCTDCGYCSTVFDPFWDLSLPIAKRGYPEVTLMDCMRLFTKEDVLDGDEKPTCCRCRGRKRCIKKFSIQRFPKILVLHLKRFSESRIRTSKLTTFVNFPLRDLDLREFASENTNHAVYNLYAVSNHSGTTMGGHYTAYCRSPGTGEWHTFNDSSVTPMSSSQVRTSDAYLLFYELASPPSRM
Method: The final assay volume was 6 μL.

USP21 [3] = target: T1, USP21; remark: listed apart in the source
Method: The final assay volume was 6 μL. […] First, 2 μL of 1 nM USP21 (or selectivity enzyme) solution was added to the compound plate and preincubated for 15–20 min at room temperature. […] The reaction was stopped by 50 mM citric acid in 25 mM HEPES, pH 7.5, containing 0.01% BSA. […] The USP21 and USP22 were measured with five flashes and USP2 and USP7 in fly mode.

- ΔTm at 100 µM (USP21 [1]): 0.3 °C
- chromatographic logD (log D measurement (HPLC)): 2.8
- pIC50 (USP21 [2]): < 4.60
- pIC50 (USP2): < 4.60
- pIC50 (USP21 [3]): < 4.60
SMILES: CC(C)C(NC(=O)C1CCCC1)C(=O)Nc1nnc(Cc2ccc([N+](=O)[O-])cc2)s1 (centres unmarked) [Compound 3, CC(C)C(NC(=O)C1CCCC1)C(=O)Nc2nnc(Cc3ccc(cc3)[N+](=O)[O-])s2]
